The values that follow come from article PMC6384730, “Systematic Identification of Thiosemicarbazides for Inhibition of Toxoplasma gondii Growth In Vitro” (Molecules, 2019).

Converted amounts (≈) assume the structure as drawn. “And” between values parts separate entries of the source, which are not always exact repeats. Equal entries are not always repeated. Where two headings read alike, the source gives them in different places.

Data set [1] relates to L929 cells. As to the kind of experiment: MTT cell viability (cytotoxicity) assay on L929 cells. The class given is cell-based, mouse. The note with it: L929 cells, 24 h exposure. As to the method: (§1) Cells were trypsinized twice a week, and seeded at density 1 × 10^6 per T25 cell culture flask, and incubated for 24-48 h at 37 °C and 10% CO2 to achieve a confluent monolayer. […] The final concentration of DMSO in compounds dilutions was not higher than 1.00%. […] Dilution of the all compounds 2-22 and drug were freshly prepared before the cells were exposed. […] The MTT assay was used according to international standards: ISO 10993-5:2009(E), Biological evaluation of medical devices, Part 5: Tests for in vitro cytotoxicity. […] Afterward, the culture medium in the plates was replaced by 100 μL of compounds and sulfadiazine suspension and the cells were exposed for 24 h. Then, 1 mg/mL of MTT solution in RPMI 1640 without phenol red was prepared and 50 μL of the solution was added to each well and incubated at 37 °C, 10% CO2 for 2 h. Mitochondrial dehydrogenases of viable cells reduced the yellowish water-soluble MTT to water-insoluble formazan crystals, which were solubilized with dimethyl sulfoxide (DMSO). The cell culture medium was aspirated cautiously, after which 150 μL DMSO was added to each well, the plates were gently mixed, then 25 μL 0.1 M glycine buffer (pH = 10.5) (Sigma) was added. Optical density was read on the ELISA reader (Multiskan EX, Labsystems, Vienna, VA, USA) at 570 nm. The results were expressed as the percentage of viability compared to untreated cells. All experiments were performed in triplicate. Moreover, cells were treated with 4.0-0.03% concentration of DMSO as a compounds solvent (data not shown).

Assay in data set [2]: as above
The note with it: mouse, L929 mouse fibroblast cells, 24 h, % of untreated cells; for viability at 24 h, 62.5 µg/mL: 62.50 µg/mL. Type of data set: cell-based, mouse. As to the method:
as §1

Data set [3] concerns T. gondii RH tachyzoites. Nature of the data set: Influence on T. gondii proliferation ([3H]uracil incorporation) in infected Vero cells. The class given is cell-based, Toxoplasma gondii. The note with it: for IC50: Toxoplasma gondii, Vero.
Method: Vero cell line (African green monkey kidney) (ATCC® CCL-81™) were maintained in EMEM (EMEM/10%HIFBS/P/S) (Eagle’s Minimum Essential Medium—ATCC® 30-2003™) culture medium supplemented with 10% HIFBS (Heat-Inactivated (1 h in 56°C) Fetal Bovine Serum—ATCC), 100 U/mL penicillin, 100 μg/mL streptomycin. The cell line was trypsinized (using Trypsin-EDTA Solution, 1X ATCC® 30-2101™) twice a week, and seeded at density 1 × 10^6 per T25 cell culture flask (Falcon), and incubated for 24–48 h at 37 °C and 5 CO2 to achieve a confluent monolayer. The highly virulent RH strain of Toxoplasma gondii, haplogroup I (ATCC® PRA-310™) were maintained as tachyzoites according to the ATCC product sheet, in DMEM (Dulbecco’s Modified Eagle’s Medium—ATCC® 30-2002™) (DMEM/3%HIFBS/P/S—parasite culture medium) under condition 37 °C and 5 CO2 and passage twice per week.
The Vero cells were seeded on 96-well plates (1 × 10^5 cells/100 µL/well) in EMEM/10%HIFBS/P/S. After 24 h of incubation medium was removed and then T. gondii RH tachyzoites were added to the cell monolayers at density 1 × 10^5 cells/100 µL/well in DMEM/3%HIFBS/P/S. One hour later different compounds and sulfadiazine dilutions (100 µL/well) in parasite culture medium were added to the cell monolayers with T. gondii. After subsequent 24 h of incubation 1 µCi/well [5,6-^3H] uracil (Moravek Biochemicals Inc., Brea, CA, USA) was applied to each microculture for further 72 h. The amount of the isotope incorporated into the parasite nucleic acid pool, corresponding to the parasite growth, was measured by liquid scintillation counting using 1450 Microbeta Plus Liquid Scintillation Counter (Wallac Oy, Turku, Finland). The results were expressed as counts per minute (CPM) and transformed to the percentage of viability compared to untreated cells. All experiments were performed in triplicate.
Setting [4] is: RH tachyzoites in Vero cells, [3H]uracil incorporation, highest concentration tested 125 µg/mL, read-out: IC50 (50% inhibition of T. gondii proliferation in vitro).

As for `Cc1nc[nH]c1C(=O)NNC(=S)Nc1ccccc1[N+](=O)[O-]` [Compound 2, 1-(4-Methylimidazol-5-oyl)-4-(2-nitrophenyl)thiosemicarbazide], the melting point – broadly, the temperature, or range, at which the solid turns liquid – was in the range of 215 to 217 °C. Also, the “CC30 (concentration required for 30% cells proliferation inhibition)” value in data set [1] was 181.55 µg/mL. Besides, in data set [2], the viability (in general, a read-out of living cells in per cent, often relative to untreated cells) at 24 h, 3.91 µg/mL amounted to 103%; the viability at 24 h, 7.81 µg/mL amounted to 101%; the viability at 24 h, 15.63 µg/mL was found to be 96.7%; the viability at 24 h, 31.25 µg/mL was determined as 94.6%. Moreover, in data set [2], the viability at 24 h, 62.5 µg/mL came out at 89.7%; the viability at 24 h, 125 µg/mL came to 75.3%; the viability at 24 h, 250 µg/mL was 53.4%; the viability at 24 h, 500 µg/mL amounted to 29.1%. Further, in data set [3] (setting [4]), the IC50 worked out at 43 µg/mL (≈ 134 µM).

On to `Cc1nc[nH]c1C(=O)NNC(=S)Nc1cccc([N+](=O)[O-])c1` [Compound 3, 1-(4-Methylimidazol-5-oyl)-4-(3-nitrophenyl)thiosemicarbazide], for which the “CC30 (concentration required for 30% cells proliferation inhibition)” value in data set [1] is on record as 141.25 µg/mL. In addition, in data set [2], the viability at 24 h, 3.91 µg/mL was 95.4%; the viability at 24 h, 7.81 µg/mL turned out to be 94.6%; the viability at 24 h, 15.63 µg/mL worked out at 94.6%; the viability at 24 h, 31.25 µg/mL was 89.4%. In data set [2], the viability at 24 h, 62.5 µg/mL came to 79%; the viability at 24 h, 125 µg/mL was found to be 72.4%; the viability at 24 h, 250 µg/mL is 55.8%; the viability at 24 h, 500 µg/mL worked out at 15.3%. Besides, the IC50 in data set [3] (setting [4]) amounted to 14.8 µg/mL (≈ 46.1 µM).

As to `Cc1nc[nH]c1C(=O)NNC(=S)Nc1ccc([N+](=O)[O-])cc1` [Compound 4, 1-(4-Methylimidazol-5-oyl)-4-(4-nitrophenyl)thiosemicarbazide], the melting point was 235 to 237 °C. Also, in data set [1], the “CC30 (concentration required for 30% cells proliferation inhibition)” value turned out to be 238.78 µg/mL. Also, in data set [2], the viability at 24 h, 3.91 µg/mL stood at 98.5%; the viability at 24 h, 7.81 µg/mL stood at 95.7%; the viability at 24 h, 15.63 µg/mL came to 95.1%; the viability at 24 h, 31.25 µg/mL came out at 93.1%. In addition, in data set [2], the viability at 24 h, 62.5 µg/mL amounted to 88.9%; the viability at 24 h, 125 µg/mL was determined as 79.6%; the viability at 24 h, 250 µg/mL was found to be 66.9%; the viability at 24 h, 500 µg/mL worked out at 23.2%. In addition, the “fold more potent than sulfadiazine” value in data set [3] (T. gondii proliferation, IC50 ratio) was determined as 184 fold. Further, in data set [3] (setting [4]), the IC50 stood at 21.6 µg/mL (≈ 67.5 µM).

In the case of `COc1ccccc1NC(=S)NNC(=O)c1[nH]cnc1C` [Compound 5, 4-(2-Methoxyphenyl)-1-(4-methylimidazol-5-oyl)thiosemicarbazide], in data set [1], the “CC30 (concentration required for 30% cells proliferation inhibition)” value came out at 138.04 µg/mL. Besides, in data set [2], the viability at 24 h, 3.91 µg/mL turned out to be 95.8%; the viability at 24 h, 7.81 µg/mL was 91.9%; the viability at 24 h, 15.63 µg/mL was 89%; the viability at 24 h, 31.25 µg/mL is 86.5%. Besides, in data set [2], the viability at 24 h, 62.5 µg/mL was found to be 78.5%; the viability at 24 h, 125 µg/mL is 69.7%; the viability at 24 h, 250 µg/mL came to 63.1%; the viability at 24 h, 500 µg/mL was found to be 53.6%. For the same compound, the IC50 in data set [3] (setting [4]) came out at 33.1 µg/mL (≈ 108 µM).

Turning to `COc1cccc(NC(=S)NNC(=O)c2[nH]cnc2C)c1` [Compound 6, 4-(3-Methoxyphenyl)-1-(4-methylimidazol-5-oyl)thiosemicarbazide], the melting point is 196 to 198 °C. The “CC30 (concentration required for 30% cells proliferation inhibition)” value in data set [1] was found to be 165.96 µg/mL. Moreover, in data set [2], the viability at 24 h, 3.91 µg/mL stood at 92.8%; the viability at 24 h, 7.81 µg/mL was 88.6%; the viability at 24 h, 15.63 µg/mL was found to be 86.2%; the viability at 24 h, 31.25 µg/mL stood at 83.3%. Also, in data set [2], the viability at 24 h, 62.5 µg/mL was found to be 79.7%; the viability at 24 h, 125 µg/mL turned out to be 68.8%; the viability at 24 h, 250 µg/mL came out at 67.3%; the viability at 24 h, 500 µg/mL came out at 56.8%. The IC50 in data set [3] (setting [4]) was determined as 79.7 µg/mL (≈ 261 µM).

`COc1ccc(NC(=S)NNC(=O)c2nc[nH]c2C)cc1` [Compound 7]: the “CC30 (concentration required for 30% cells proliferation inhibition)” value in data set [1] stood at 389.05 µg/mL. For the same compound, in data set [2], the viability at 24 h, 3.91 µg/mL amounted to 95.1%; the viability at 24 h, 7.81 µg/mL stood at 90.3%; the viability at 24 h, 15.63 µg/mL came to 89.5%; the viability at 24 h, 31.25 µg/mL came to 87.7%. For the same compound, in data set [2], the viability at 24 h, 62.5 µg/mL stood at 85.8%; the viability at 24 h, 125 µg/mL came out at 84%; the viability at 24 h, 250 µg/mL is 70.7%; the viability at 24 h, 500 µg/mL worked out at 68.6%. For the same compound, the IC50 in data set [3] (setting [4]) amounted to 114 µg/mL (≈ 373 µM).

Regarding `Cc1nc[nH]c1C(=O)NNC(=S)NCc1ccccc1` [Compound 8, 4-Benzyl-1-(4-methylimidazol-5-oyl)thiosemicarbazide], the “CC30 (concentration required for 30% cells proliferation inhibition)” value in data set [1] was determined as 123.03 µg/mL. In data set [2], the viability at 24 h, 3.91 µg/mL was determined as 101%; the viability at 24 h, 7.81 µg/mL was determined as 99.4%; the viability at 24 h, 15.63 µg/mL is 96.5%; the viability at 24 h, 31.25 µg/mL is 92%. In data set [2], the viability at 24 h, 62.5 µg/mL turned out to be 88.8%; the viability at 24 h, 125 µg/mL worked out at 64.9%; the viability at 24 h, 250 µg/mL stood at 53.3%; the viability at 24 h, 500 µg/mL turned out to be 46.6%. Further, the IC50 in data set [3] (IC50 greater than 125 µg/mL (highest concentration tested), calculated by extrapolation of the curves (GraphPad Prism), read-out: IC50 (50% inhibition of T. gondii proliferation in vitro), extrapolated) is approximately 150 µg/mL (≈ 517 µM).

In the case of `CC(=O)c1cccc(NC(=S)NNC(=O)c2[nH]cnc2C)c1` [Compound 12, 4-(3-Acetylphenyl)-1-(4-methylimidazol-5-oyl)thiosemicarbazide], the “CC30 (concentration required for 30% cells proliferation inhibition)” value in data set [1] was 206.54 µg/mL. In data set [2], the viability at 24 h, 3.91 µg/mL is 106%; the viability at 24 h, 7.81 µg/mL is 104%; the viability at 24 h, 15.63 µg/mL came out at 103%; the viability at 24 h, 31.25 µg/mL turned out to be 101%. In data set [2], the viability at 24 h, 62.5 µg/mL came to 99.3%; the viability at 24 h, 125 µg/mL amounted to 96.7%; the viability at 24 h, 250 µg/mL came to 76.8%; the viability at 24 h, 500 µg/mL worked out at 56.2%. In addition, the IC50 in data set [3] (setting [4]) was found to be 95.5 µg/mL (≈ 301 µM).

Regarding `Cc1nc[nH]c1C(=O)NNC(=S)Nc1cc(F)ccc1F` [Compound 15, 4-(2,5-Difluorophenyl)-1-(4-methylimidazol-5-oyl)thiosemicarbazide], in data set [1], the “CC30 (concentration required for 30% cells proliferation inhibition)” value worked out at 158.49 µg/mL. In data set [2], the viability at 24 h, 3.91 µg/mL came out at 105%; the viability at 24 h, 7.81 µg/mL came to 102%; the viability at 24 h, 15.63 µg/mL worked out at 101%; the viability at 24 h, 31.25 µg/mL was 96.2%. Moreover, in data set [2], the viability at 24 h, 62.5 µg/mL came to 84.3%; the viability at 24 h, 125 µg/mL was 74.8%; the viability at 24 h, 250 µg/mL amounted to 65.2%; the viability at 24 h, 500 µg/mL stood at 51.2%. In addition, the “IC50 (50% inhibition of T. gondii proliferation in vitro)” value in data set [3] (RH tachyzoites in Vero cells, [3H]uracil incorporation, highest concentration tested 125 µg/mL) was found to be 53.70 µg/mL. The IC50 in data set [3] (setting [4]) is 53.1 µg/mL (≈ 170 µM).

Regarding `Cc1ccc(NC(=S)NNC(=O)c2[nH]cnc2C)cc1` [Compound 18], in data set [1], the “CC30 (concentration required for 30% cells proliferation inhibition)” value turned out to be 34.67 µg/mL. Besides, in data set [2], the viability at 24 h, 3.91 µg/mL was found to be 99.1%; the viability at 24 h, 7.81 µg/mL was found to be 91.7%; the viability at 24 h, 15.63 µg/mL is 82%; the viability at 24 h, 31.25 µg/mL was determined as 69%. Besides, in data set [2], the viability at 24 h, 62.5 µg/mL stood at 64.6%; the viability at 24 h, 125 µg/mL was found to be 63.7%; the viability at 24 h, 250 µg/mL is 60.4%; the viability at 24 h, 500 µg/mL was found to be 53%. Also, the IC50 in data set [3] (setting [4]) was approximately 57.6 µg/mL (≈ 199 µM).

Take `CCOc1ccc(NC(=S)NNC(=O)c2[nH]cnc2C)cc1` [Compound 21, 4-(4-Ethoxyphenyl)-1-(4-methylimidazol-5-oyl)thiosemicarbazide]: the “CC30 (concentration required for 30% cells proliferation inhibition)” value in data set [1] is 500.00 µg/mL and 500 µg/mL. Also, in data set [2], the viability at 24 h, 3.91 µg/mL was found to be 115%; the viability at 24 h, 7.81 µg/mL came to 114%; the viability at 24 h, 15.63 µg/mL was found to be 112%; the viability at 24 h, 31.25 µg/mL is 106%. Also, in data set [2], the viability at 24 h, 62.5 µg/mL was determined as 101%; the viability at 24 h, 125 µg/mL turned out to be 84.3%; the viability at 24 h, 250 µg/mL is 82.3%; the viability at 24 h, 500 µg/mL stood at 72%. Further, the IC50 in data set [3] (setting [4]) was determined as 95.3 µg/mL (≈ 298 µM).
